For one assay, the target named is T1, recombinant human CLK3 (Homo sapiens, UniProt P49761).
T1 construct: purchased Thermo Fisher Scientific PV3826
Put plainly: CLK3 kinase assay (LANCE Ultra). It is filed as biochemical. To be noted: CLK3 0.5 nM, ATP 300 μM, 3 hours at 30° C. The method, then: CLK3 kinase activity was measured using the LANCE® Ultra technology (PerkinElmer) essentially as recommended by the supplier. Briefly, 2.5 μL of test sample at 4× the desired final concentration in 4% DMSO were dispensed into white, low volume, round bottom, 384 well plates (Corning, cat. no. 4512). 5 μL of a mixture containing recombinant human CLK3 (Thermo Fisher Scientific, cat. no. PV3826) and the labeled peptide substrate ULight™-CREBtide (PerkinElmer, cat. no. TRF0107) prepared in 1.33× kinase buffer (Thermo Fisher Scientific, cat. no. PV3189) were then added. Finally, the reactions were started by adding 2.5 μL of a 4× solution of ATP in kinase buffer. The plates were sealed with adhesive foils and incubated for 3 hours at 30° C. in the dark. The final concentrations of CLK3, ULight™-CREBtide, and ATP were 0.5 nM, 50 nM, and 300 μM, respectively. 5 μL of 40 mM EDTA were then added to terminate the reactions. The Eu-anti-phospho-CREB antibody (PerkinElmer, cat. no. TRF0200) diluted in LANCE® detection buffer (PerkinElmer, cat. no. CR97) was then added to a final concentration of 2 nM and the reactions were incubated for 1 hour at room temperature in the dark. The signals were measured using a Synergy 4 reader (BioTek) with a 320/80 nm filter for the excitation and 620/10 nm and 665/8 nm filters for the donor and acceptor emission, respectively. Relative inhibition values were calculated by normalizing the raw data using solvent control wells (0% inhibition) and wells that received no ATP (100% inhibition). IC50 values were calculated by fitting the concentration-response data to a sigmoidal 4-parameter logistic model. IC50 values for CLK3 are determined from duplicate measurements at ten different concentrations (serial 1:3 dilutions).
In general terms: Time-resolved FRET reads energy transfer from a long-lived donor to a nearby acceptor.

The subject of another assay is MDA-MB-231 cells. Kind of assay: MDA-MB-231 proliferation assay. It is filed as cell-based. Conditions: Homo sapiens, MDA-MB-231, 72 h, YO-PRO-1 Iodide readout. The source says:
(§1) MDA-MB-231 and CAL-51 Proliferation Assay
(§2) Cells (MDA-MB-231 (American Type Culture Collection (ATCC), #HTB-26) or CAL-51 (Deutsche Sammlung von Mikroorganismen und Zellkulturen (DSMZ), #ACC302) as applicable) were cultivated in DMEM High Glucose (4.5 g/L) with L-Glutamine (BioConcept, cat. no. 1-26F03-I) supplemented with 1% Na-pyruvate (Sigma, cat. no. S8636), 1% Penicillin-Streptomycin (BioConcept, cat. no. 4-01F00H), and 10% FBS (Sigma, cat. no. F9665) using standard techniques. Cells were seeded in black, clear-bottom 384 well plates for tissue culture (Greiner Bio-One, cat. no. 781091) at a density of 750 cells per well in 20 μL medium and the plates were incubated overnight at 37° C. with 5% CO2 prior to treatment. Experimental compounds were serially diluted in DMSO to 200× the desired final concentrations. The solutions were then diluted 1:40 with culture medium and 5 μL aliquots were mixed into the wells containing the cells. The final concentration of DMSO was 0.5%. The plates were incubated for 72 hours and cell numbers were then measured using YO-PRO™-1 Iodide (ThermoFisher Scientific, cat. no. Y3603) essentially as recommended by the manufacturer. Briefly, a 12.5 μM solution of YO-PRO™_1 Iodide in 5× YO—PRO buffer (100 mM Na-citrate, 130 mM NaCl, pH 4) was combined with an equal volume of lysis buffer (0.6% NP-40, 30 mM EDTA, 30 mM EGTA, 0.33× YO—PRO buffer) and 12.5 μL of the mixture were dispensed into each well. The plates were incubated at room temperature in the dark for 30 minutes. Fluorescence intensity signals were then measured on a Synergy 4 reader (BioTek) using 485/20 nm and 530/25 nm filters for the excitation and emission, respectively. Relative proliferation values were calculated by normalizing the raw data using DMSO-treated cells (100% proliferation) and the signals obtained from cells that were evaluated at the time of compound addition (0% proliferation). The concentration-response data were fitted to a sigmoidal 4-parameter logistic model with the maximum constrained to 100%. GI50 values were calculated from the curves as the compound concentrations reducing proliferation to 50%.

In another assay the test system is CAL-51 cells. Put plainly: CAL-51 proliferation assay. It is filed as cell-based. To be noted: Homo sapiens, CAL-51, 72 h, YO-PRO-1 Iodide readout.
Text: as §1, §2

Molecules are shown by their SMILES.

T1 sequence (P49761 whole entry): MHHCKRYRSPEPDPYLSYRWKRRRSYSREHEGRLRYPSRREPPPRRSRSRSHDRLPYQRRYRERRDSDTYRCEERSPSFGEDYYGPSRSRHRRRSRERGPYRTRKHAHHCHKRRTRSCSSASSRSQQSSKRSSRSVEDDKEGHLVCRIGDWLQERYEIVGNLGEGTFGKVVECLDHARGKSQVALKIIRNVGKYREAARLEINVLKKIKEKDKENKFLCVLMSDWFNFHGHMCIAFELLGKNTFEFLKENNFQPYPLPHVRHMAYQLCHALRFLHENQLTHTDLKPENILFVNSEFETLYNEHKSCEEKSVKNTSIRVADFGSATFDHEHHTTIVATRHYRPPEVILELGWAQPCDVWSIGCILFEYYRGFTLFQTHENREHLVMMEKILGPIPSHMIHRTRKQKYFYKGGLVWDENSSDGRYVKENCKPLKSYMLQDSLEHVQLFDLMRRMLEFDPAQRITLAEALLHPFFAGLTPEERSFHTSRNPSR

In the case of `CN(c1c(O[C@H]2CC[C@H](N)CC2)ccc2c1CC(C)(C)c1c(N)ncnc1-2)S(=O)(=O)CCC#N` [Example 74, N-[4-amino-8-(trans-4-aminocyclohexoxy)-5,5-dimethyl-6H-benzo[h]quinazolin-7-yl]-2-cyano-N-methyl-ethanesulfonamide], on recombinant human CLK3, the IC50 (commonly the concentration that gives 50% inhibition) is less than 30 nM. For the same molecule, the GI50 (in general, the concentration giving 50% growth inhibition) is 100 to 2000 nM with MDA-MB-231 cells and less than 100 nM in the assay with CAL-51 cells.
Turning to `CN(CCC#N)c1c(OC2CCNCC2)ccc2c1CC(C)(C)c1c(N)ncnc1-2` [Example 93, 3-[[4-amino-5,5-dimethyl-8-(4-piperidyloxy)-6H-benzo[h]quinazolin-7-yl]-methyl-amino]propanenitrile], the IC50 at recombinant human CLK3 was less than 30 nM. The GI50 in the assay with MDA-MB-231 cells and in the assay on CAL-51 cells was less than 100 nM each time.
`CN(CCC#N)c1c(N2CCNCC2)ccc2c1CC(C)(C)c1c(N)ncnc1-2` [Example 125, 3-[(4-amino-5,5-dimethyl-8-piperazin-1-yl-6H-benzo[h]quinazolin-7-yl)-methyl-amino]propanenitrile]: the IC50 on recombinant human CLK3 was less than 30 nM. In addition, the GI50 in the assay on MDA-MB-231 cells and in the assay on CAL-51 cells was less than 100 nM each time.
For `CN(CCC#N)c1cccc2c1CC(C)(C)c1c(N)ncnc1-2` [Example 109, 3-[(4-amino-5,5-dimethyl-6H-benzo[h]quinazolin-7-yl)-methyl-amino]propanenitrile], on recombinant human CLK3, the IC50 fell in the range of 30 to 100 nM. Also, the GI50 was 100 to 2000 nM in the assay on MDA-MB-231 cells and less than 100 nM with CAL-51 cells.
For `CC1(C)Cc2c(ccc(O[C@H]3CC[C@H](N)CC3)c2NCCO)-c2ncnc(N)c21` [Example 14, 2-[[4-amino-8-(trans-4-aminocyclohexoxy)-5,5-dimethyl-6H-benzo[h]quinazolin-7-yl]amino]ethanol], on recombinant human CLK3, the IC50 is less than 30 nM. Also, the GI50 in the assay on MDA-MB-231 cells and in the assay on CAL-51 cells was 100 to 2000 nM throughout.
With `CC1(C)Cc2c(ccc(O[C@H]3CC[C@H](N)CC3)c2CCCC#N)-c2ncnc(N)c21` [Example 81, 4-[4-amino-8-(trans-4-aminocyclohexoxy)-5,5-dimethyl-6H-benzo[h]quinazolin-7-yl]butanenitrile], the IC50 on recombinant human CLK3 is less than 30 nM. The GI50 in the assay with MDA-MB-231 cells is 100 to 2000 nM; with CAL-51 cells, less than 100 nM.
With `CN(CCS(C)(=O)=O)c1c(O[C@H]2CC[C@@H](N)CC2)ccc2c1CC(C)(C)c1c(N)ncnc1-2` [Example 32, 8-(cis-4-aminocyclohexoxy)-N7,5,5-trimethyl-N7-(2-methylsulfonylethyl)-6H-benzo[h]quinazoline-4,7-diamine], at recombinant human CLK3, the IC50 is less than 30 nM. The GI50 in the assay on MDA-MB-231 cells and in the assay on CAL-51 cells was more than 2000 nM throughout.
On to `CN(CC#N)c1c(O[C@H]2CC[C@H](N)CC2)ccc2c1CC(C)(C)c1c(N)ncnc1-2` [Example 33, 2-[[4-amino-8-(trans-4-aminocyclohexoxy)-5,5-dimethyl-6H-benzo[h]quinazolin-7-yl]-methyl-amino]acetonitrile], for which, on recombinant human CLK3, the IC50 is less than 30 nM. Also, the GI50 in the assay on MDA-MB-231 cells is 100 to 2000 nM; in the assay with CAL-51 cells it was less than 100 nM.
For `CC1(C)Cc2c(ccc(Br)c2N2CCC(C#N)C2)-c2ncnc(N)c21` (stereo not drawn) [Example 120, 1-(4-amino-8-bromo-5,5-dimethyl-6H-benzo[h]quinazolin-7-yl)pyrrolidine-3-carbonitrile], the concentration for half-maximal inhibition (IC50) at recombinant human CLK3 was 101 to 1000 nM. For the same molecule, the GI50 in the assay on MDA-MB-231 cells and with CAL-51 cells was 100 to 2000 nM throughout.
Turning to `CC1(C)Cc2c(ccc(Br)c2NC[C@@H]2CN(CCO)C(=O)O2)-c2ncnc(N)c21` [Example 127, (5R)-5-[[(4-amino-8-bromo-5,5-dimethyl-6H-benzo[h]quinazolin-7-yl)amino]methyl]-3-(2-hydroxyethyl)oxazolidin-2-one], the IC50 on recombinant human CLK3 lay in the range of 30 to 100 nM. Further, the GI50 in the assay with MDA-MB-231 cells and with CAL-51 cells was 100 to 2000 nM each time.
Consider `CN(CCC(=O)O)c1c(O[C@H]2CC[C@H](N)CC2)ccc2c1CC(C)(C)c1c(N)ncnc1-2` [Example 85, 3-[[4-amino-8-(trans-4-aminocyclohexoxy)-5,5-dimethyl-6H-benzo[h]quinazolin-7-yl]-methyl-amino]propanoic acid], for which the IC50 at recombinant human CLK3 lay within 30 to 100 nM. For the same molecule, the GI50 with MDA-MB-231 cells and in the assay with CAL-51 cells was more than 2000 nM in each case.
As for `CN1CCOc2ccc3c(c21)CC(C)(C)c1c(N)ncnc1-3` [Example 4, 4,6,6-trimethyl-3,5-dihydro-2H-quinazolino[7,8-f][1,4]benzoxazin-7-amine], the IC50 at recombinant human CLK3 fell in the range of 30 to 100 nM. Also, the GI50 in the assay on MDA-MB-231 cells and in the assay on CAL-51 cells was 100 to 2000 nM in each case.
Consider `COc1ccc2c(c1NCC(O)CO)CC(C)(C)c1c(N)ncnc1-2` (stereo not drawn) [Example 27, 3-[(4-amino-8-methoxy-5,5-dimethyl-6H-benzo[h]quinazolin-7-yl)amino]propane-1,2-diol], for which the IC50 on recombinant human CLK3 lay within 30 to 100 nM. For the same molecule, the GI50 in the assay on MDA-MB-231 cells and in the assay on CAL-51 cells was 100 to 2000 nM in each case.
In the case of `CCN(CCO)c1c(O[C@H]2CC[C@@H](N)CC2)ccc2c1CC(C)(C)c1c(N)ncnc1-2` [Example 22, 2-[[4-amino-8-(4-cis-aminocyclohexoxy)-5,5-dimethyl-6H-benzo[h]quinazolin-7-yl]-ethyl-amino]ethanol], the IC50 on recombinant human CLK3 was less than 30 nM. The values for the GI50 in the assay on MDA-MB-231 cells and in the assay with CAL-51 cells were 100 to 2000 nM and less than 100 nM, respectively.
As for `CC1(C)Cc2c(ccc(O[C@H]3CC[C@H](N)CC3)c2NS(=O)(=O)CCO)-c2ncnc(N)c21` [Example 42, N-[4-amino-8-(trans-4-aminocyclohexoxy)-5,5-dimethyl-6H-benzo[h]quinazolin-7-yl]-2-hydroxy-ethanesulfonamide], the IC50 at recombinant human CLK3 fell in the range of 30 to 100 nM. The GI50 in the assay on MDA-MB-231 cells and with CAL-51 cells was more than 2000 nM in each case.
`CC1(C)Cc2c(ccc(O[C@H]3CC[C@@H](N4CCOCC4)CC3)c2NC[C@@H]2CNC(=O)O2)-c2ncnc(N)c21` [Example 130, (5R)-5-[[[4-amino-5,5-dimethyl-8-(cis-4-morpholinocyclohexoxy)-6H-benzo[h]quinazolin-7-yl]amino]methyl]oxazolidin-2-one]: on recombinant human CLK3, the IC50 is less than 30 nM. Also, the GI50 in the assay with MDA-MB-231 cells was more than 2000 nM; in the assay on CAL-51 cells, 100 to 2000 nM.
With `CC1(C)Cc2c(ccc(O[C@H]3CC[C@@H](N)CC3)c2NC[C@@H]2CNC(=O)O2)-c2ncnc(N)c21` [Example 128, (5R)-5-[[[4-amino-8-(cis-4-aminocyclohexoxy)-5,5-dimethyl-6H-benzo[h]quinazolin-7-yl]amino]methyl]oxazolidin-2-one], the IC50 on recombinant human CLK3 was less than 30 nM. Further, the GI50 with MDA-MB-231 cells and in the assay on CAL-51 cells was more than 2000 nM throughout.
As to `CC1(C)Cc2c(ccc(O[C@H]3CC[C@H](N)CC3)c2NCC#N)-c2ncnc(N)c21` [Example 35, 2-[[4-amino-8-(trans-4-aminocyclohexoxy)-5,5-dimethyl-6H-benzo[h]quinazolin-7-yl]amino]acetonitrile], on recombinant human CLK3, the IC50 was 30 to 100 nM. Besides, the GI50 with MDA-MB-231 cells and in the assay with CAL-51 cells was 100 to 2000 nM each time.
Consider `C#CCCN(C)c1c(O[C@H]2CC[C@H](N)CC2)ccc2c1CC(C)(C)c1c(N)ncnc1-2` [Example 54, 8-(trans-4-aminocyclohexoxy)-N7-but-3-ynyl-N7,5,5-trimethyl-6H-benzo[h]quinazoline-4,7-diamine], for which the IC50 on recombinant human CLK3 is less than 30 nM. Also, the GI50 with MDA-MB-231 cells and in the assay with CAL-51 cells was less than 100 nM in each case.
